# Source: paper PMC5988656, “Phase I studies of AZD1208, a proviral integration Moloney virus kinase inhibitor in solid and haematological cancers” (British Journal of Cancer, 2018)
# Experiment: AML dose-escalation study: pharmacokinetics (plasma, urine)
# Type: in vivo, human
# Experimental: The schedules for collection of blood and urine samples for PK analyses in each cohort in both studies are described in Supplementary Table 1. When necessary for clinical response assessment in the AML study, a bone marrow sample for PK analysis was collected at Cycle 1, Day 28.
# The concentration of AZD1208 in plasma and urine was determined by Covance, on behalf of Clinical Bioanalysis Alliance at AstraZeneca R&D, using a bioanalytical method. A volume of 0.05 ml of K2EDTA human plasma sample was extracted by liquid–liquid extraction using 0.7 ml of methyl tert-butyl ether. Approximately 100 µl of the supernatant was transferred, evaporated to dryness and reconstituted with 350 µl of 1:1 methanol:water, and a 5 µl injection was made to the high-performance liquid chromatography (HPLC) column. HPLC separations were performed on a Phenomenex LUNA C18 (50 × 2 mm, 5 µm) column using a mobile phase of 0.1% formic acid in water (A) and 0.1% formic acid in acetonitrile (B) at a flow rate of 0.6 ml/min and a column temperature of 40 °C. AZD1208-D5 was used as the internal standard. Detection was performed in a Sciex API4000 mass spectrometer, in a positive electrospray ionisation mode, using multiple reaction monitoring detection (AZD1208: 380.0–>248.1; AZD1208-D5: 385.0–>253.1).
smiles,measurement,setting,value
N[C@@H]1CCCN(c2c(/C=C3\SC(=O)NC3=O)cccc2-c2ccccc2)C1 [AZD1208],Percentage of patients with a lower accumulation ratio,240 mg,0%
same,Percentage of patients with a lower accumulation ratio,900 mg,67%
same,Patients with significantly lower exposure at steady state compared with the first dose,"120–900 mg doses, 4/16 patients",25%
same,Dose proportionality of Cmax and AUC0–24,"Cycle 1, Day 1",dose proportional
same,"Tmax, median","Cycle 1, Day 1, 120 mg, n=3",2.42 h
same,"Tmax, median","Cycle 1, Day 1, 240 mg, n=6",2.20 h
same,"Tmax, median","Cycle 1, Day 1, 480 mg, n=6",3.17 h
same,"Tmax, median","Cycle 1, Day 1, 700 mg, n=7",3.05 h
same,"Tmax, median","Cycle 1, Day 1, 900 mg, n=9",3.20 h
same,Gmean plasma concentration of AZD1208 (± SD),"Cycle 1, Day 1, 0.5 h post-dose, 120 mg, n=3","85.8 (40.1, 183.9) ng ml"
same,Gmean plasma concentration of AZD1208 (± SD),"Cycle 1, Day 1, 0.5 h post-dose, 240 mg, n=6","158.3 (14.4, 1740.3) ng ml"
same,Gmean plasma concentration of AZD1208 (± SD),"Cycle 1, Day 1, 0.5 h post-dose, 480 mg, n=6","124.3 (67.6, 228.6) ng ml"
same,Gmean plasma concentration of AZD1208 (± SD),"Cycle 1, Day 1, 0.5 h post-dose, 700 mg, n=7","386.8 (93.3, 1603.6) ng ml"
same,Gmean plasma concentration of AZD1208 (± SD),"Cycle 1, Day 1, 0.5 h post-dose, 900 mg, n=9","251.5 (90.7, 697.2) ng ml"
same,Gmean plasma concentration of AZD1208 (± SD),"Cycle 1, Day 1, 1 h post-dose, 120 mg, n=3","321.3 (187.8, 549.9) ng ml"
same,Gmean plasma concentration of AZD1208 (± SD),"Cycle 1, Day 1, 1 h post-dose, 240 mg, n=6","540.4 (133.8, 2182.4) ng ml"
same,Gmean plasma concentration of AZD1208 (± SD),"Cycle 1, Day 1, 1 h post-dose, 480 mg, n=6","573.0 (248.3, 1322.0) ng ml"
same,Gmean plasma concentration of AZD1208 (± SD),"Cycle 1, Day 1, 1 h post-dose, 700 mg, n=7","883.8 (351.6, 2221.7) ng ml"
same,Gmean plasma concentration of AZD1208 (± SD),"Cycle 1, Day 1, 1 h post-dose, 900 mg, n=9","921.4 (373.1, 2275.6) ng ml"
same,Gmean plasma concentration of AZD1208 (± SD),"Cycle 1, Day 1, 1.5 h post-dose, 120 mg, n=3","774.5 (422.1, 1421.3) ng ml"
same,Gmean plasma concentration of AZD1208 (± SD),"Cycle 1, Day 1, 1.5 h post-dose, 240 mg, n=6","1098.6 (620.9, 1943.7) ng ml"
same,Gmean plasma concentration of AZD1208 (± SD),"Cycle 1, Day 1, 1.5 h post-dose, 480 mg, n=6","1243.2 (485.9, 3181.1) ng ml"
same,Gmean plasma concentration of AZD1208 (± SD),"Cycle 1, Day 1, 1.5 h post-dose, 700 mg, n=7","1849.6 (783.5, 4366.4) ng ml"
same,Gmean plasma concentration of AZD1208 (± SD),"Cycle 1, Day 1, 1.5 h post-dose, 900 mg, n=9","2106.0 (860.5, 5154.2) ng ml"
same,Gmean plasma concentration of AZD1208 (± SD),"Cycle 1, Day 1, 2 h post-dose, 120 mg, n=3","779.9 (508.9, 1195.3) ng ml"
same,Gmean plasma concentration of AZD1208 (± SD),"Cycle 1, Day 1, 2 h post-dose, 240 mg, n=6","1388.6 (1074.3, 1744.9) ng ml"
same,Gmean plasma concentration of AZD1208 (± SD),"Cycle 1, Day 1, 2 h post-dose, 480 mg, n=6","1852.3 (781.9, 4387.6) ng ml"
same,Gmean plasma concentration of AZD1208 (± SD),"Cycle 1, Day 1, 2 h post-dose, 700 mg, n=7","2640.6 (1438.6, 4847.0) ng ml"
same,Gmean plasma concentration of AZD1208 (± SD),"Cycle 1, Day 1, 2 h post-dose, 900 mg, n=9","3553.2 (2352.6, 5366.6) ng ml"
same,Gmean plasma concentration of AZD1208 (± SD),"Cycle 1, Day 1, 3 h post-dose, 120 mg, n=3","715.6 (415.5, 1232.6) ng ml"
same,Gmean plasma concentration of AZD1208 (± SD),"Cycle 1, Day 1, 3 h post-dose, 240 mg, n=6","1299.5 (967.1, 1746.2) ng ml"
same,Gmean plasma concentration of AZD1208 (± SD),"Cycle 1, Day 1, 3 h post-dose, 480 mg, n=6","2865.4 (1884.8, 4356.2) ng ml"
same,Gmean plasma concentration of AZD1208 (± SD),"Cycle 1, Day 1, 3 h post-dose, 700 mg, n=7","3112.3 (1814.6, 5337.9) ng ml"
same,Gmean plasma concentration of AZD1208 (± SD),"Cycle 1, Day 1, 3 h post-dose, 900 mg, n=9","3574.9 (1521.4, 8400.4) ng ml"
same,Gmean plasma concentration of AZD1208 (± SD),"Cycle 1, Day 1, 6 h post-dose, 120 mg, n=3","546.6 (356.7, 837.6) ng ml"
same,Gmean plasma concentration of AZD1208 (± SD),"Cycle 1, Day 1, 6 h post-dose, 240 mg, n=6","1004.2 (822.5, 1226.0) ng ml"
same,Gmean plasma concentration of AZD1208 (± SD),"Cycle 1, Day 1, 6 h post-dose, 480 mg, n=6","2642.0 (1774.2, 3934.4) ng ml"
same,Gmean plasma concentration of AZD1208 (± SD),"Cycle 1, Day 1, 6 h post-dose, 700 mg, n=7","2846.5 (2115.2, 3830.6) ng ml"
same,Gmean plasma concentration of AZD1208 (± SD),"Cycle 1, Day 1, 6 h post-dose, 900 mg, n=9","4252.0 (2883.8, 6269.4) ng ml"
same,Gmean plasma concentration of AZD1208 (± SD),"Cycle 1, Day 1, 8 h post-dose, 120 mg, n=3","481.6 (308.4, 752.3) ng ml"
same,Gmean plasma concentration of AZD1208 (± SD),"Cycle 1, Day 1, 8 h post-dose, 240 mg, n=6","950.3 (825.3, 1094.2) ng ml"
same,Gmean plasma concentration of AZD1208 (± SD),"Cycle 1, Day 1, 8 h post-dose, 480 mg, n=6","2249.0 (1520.2, 3327.1) ng ml"
same,Gmean plasma concentration of AZD1208 (± SD),"Cycle 1, Day 1, 8 h post-dose, 700 mg, n=7","3284.7 (2253.3, 4788.2) ng ml"
same,Gmean plasma concentration of AZD1208 (± SD),"Cycle 1, Day 1, 8 h post-dose, 900 mg, n=9","3882.9 (2438.1, 6184.0) ng ml"
same,Gmean plasma concentration of AZD1208 (± SD),"Cycle 1, Day 1, 24 h post-dose, 120 mg, n=3","199.0 (75.6, 524.0) ng ml"
same,Gmean plasma concentration of AZD1208 (± SD),"Cycle 1, Day 1, 24 h post-dose, 240 mg, n=6","844.5 (598.4, 1191.8) ng ml"
same,Gmean plasma concentration of AZD1208 (± SD),"Cycle 1, Day 1, 24 h post-dose, 480 mg, n=6","2169.6 (1161.6, 4052.3) ng ml"
same,Gmean plasma concentration of AZD1208 (± SD),"Cycle 1, Day 1, 24 h post-dose, 900 mg, n=9","3045.2 (1664.2, 5572.3) ng ml"
same,Gmean plasma concentration of AZD1208 (± SD),"Cycle 1, Day 1, pre-dose, 240 mg, n=6",76.9 (NC) ng ml
same,Gmean plasma concentration of AZD1208 (± SD),"Cycle 1, Day 14, 0.5 h post-dose, 120 mg, n=3","1758.9 (970.3, 3188.5) ng ml"
same,Gmean plasma concentration of AZD1208 (± SD),"Cycle 1, Day 14, 0.5 h post-dose, 240 mg, n=6","2365.9 (976.3, 6694.0) ng ml"
same,Gmean plasma concentration of AZD1208 (± SD),"Cycle 1, Day 14, 0.5 h post-dose, 480 mg, n=6","2887.4 (322.6, 25 841.7) ng ml"
same,Gmean plasma concentration of AZD1208 (± SD),"Cycle 1, Day 14, 0.5 h post-dose, 700 mg, n=7","2029.2 (863.1, 4770.5) ng ml"
